Test results taken from ChEMBL document CHEMBL1201862, “PubChem BioAssay data set” (2004).
Active and inactive are the calls of the source.

Tests used:
[1] = glucagon-like peptide-1 release potency in STC-1, concentration-response, half-maximal inhibitory concentration in the STC-1 line (AID 1117345); format: functional, cell-based
[2] = Potency on glucagon-like peptide 1 release, dose-response in NCI-H716 cell line, half maximal inhibitory concentration (AID 1117344); format: functional, cell-based
[3] = biological target: NAD-dependent protein deacylase sirtuin-5, mitochondrial (Homo sapiens, UniProt Q9NXA8); experiment: sirtuin-5 deacylation blockers, concentration series – biochemical, fluorescence imaging, cherry-pick, set 5, dose response (AID 720591);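 further: desuccinylation of succinyl peptide AMC substrate read as fluorescence after trypsin release; potency of inhibitors that lower fluorescence and may act on trypsin instead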
[4] = growth inhibition of yeast DHODH-expressing 3D7 parasites – SYBR Green, dry powder samples, dose response (AID 1159570); format: functional, cell-based;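 further: parasite growth measured after 72 hours of compound exposure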
[5] = Plasmodium falciparum Dd2 Sybr green parasite growth Measured in Cell-Based and Microorganism Combination System Using Plate Reader - 2153-01_Inhibitor_Dose_DryPowder_Activity_Set3.; format: functional
[6] = growth inhibition of PfATP4-mutant resistant parasites – NITD609-resistant line, SYBR Green, dry powder, dose response (AID 1159571); format: functional, cell-based;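 further: parasites synchronized at ring stage by sorbitol before testing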
[7] = Dd2 malaria parasite growth inhibition potency – SYBR Green, dry powder samples, dose response (AID 1159566); format: functional, cell-based;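 further: potency for growth inhibition with lower SYBR green DNA signal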
[8] = toxicity to human HepG2 hepatoma cells – cell-based, plate reader, dry powder samples, cytotoxicity control, dose response (AID 1159569); format: functional;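 further: inhibitor potency with signal falling toward the positive control level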
[9] = P. falciparum Dd2 growth inhibitors, dose response, SYBR Green, cherry-picked samples (AID 1159567); format: functional, cell-based
[10] = toxicity to human hepatoma HepG2 cells – cell-based, cherry-picked samples, cytotoxicity control, dose response (AID 1159577); format: functional
[11] = YAP1 overexpression rescue of CTGF inhibition – DLD1 cells, RT-qPCR, cherry-pick, mechanism study for YAP1 pathway inhibitor project, dose response (AID 1053127); format: functional, cell-based; conditions: DLD-1
[12] = PAX8-dependent cell viability loss – plate reader, dry powder, dose response (AID 743049); format: functional, cell-based
[13] = inhibitors acting on PAX2 in cells – cell-based, plate reader, dry powder samples, selectivity assay for PAX8 inhibitor project, dose response (AID 743048); format: functional;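 further: HEK293 cells carrying a WT1 promoter luciferase reporter driven by expressed Pax2; potency is for inhibition of Pax2 driven reporter signal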
Paired box protein Pax-8 = Paired box protein Pax-8 (Homo sapiens, UniProt Q06710); experiment: PAX8 transcriptional activity inhibition in RMG-I – RMG-I cells, luciferase, cherry-pick, dose response (AID 687027); format: functional, cell-based;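 further: luciferase reporter driven by Pax8 target thyroperoxidase promoter measured by SteadyGlo luminescence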
Cytochrome P450 2C19 = Cytochrome P450 2C19 (Homo sapiens, UniProt P33261); experiment: Cytochrome panel assay with activity outcomes. Panel member name: p450-cyp2c19 Compounds with AC50 equal or less than 10 uM are considered active; format: functional; conditions: read-out: AC50
Cytochrome P450 2D6 = Cytochrome P450 2D6 (Homo sapiens, UniProt P10635);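 further: CYP2D6 member of a cytochrome P450 panel assay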
Cytochrome P450 1A2 = biological target: T1, Cytochrome P450 1A2 (Homo sapiens, UniProt P05177);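 further: PubChem cytochrome P450 panel assay, CYP1A2 panel member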
T1 sequence (P05177 whole entry): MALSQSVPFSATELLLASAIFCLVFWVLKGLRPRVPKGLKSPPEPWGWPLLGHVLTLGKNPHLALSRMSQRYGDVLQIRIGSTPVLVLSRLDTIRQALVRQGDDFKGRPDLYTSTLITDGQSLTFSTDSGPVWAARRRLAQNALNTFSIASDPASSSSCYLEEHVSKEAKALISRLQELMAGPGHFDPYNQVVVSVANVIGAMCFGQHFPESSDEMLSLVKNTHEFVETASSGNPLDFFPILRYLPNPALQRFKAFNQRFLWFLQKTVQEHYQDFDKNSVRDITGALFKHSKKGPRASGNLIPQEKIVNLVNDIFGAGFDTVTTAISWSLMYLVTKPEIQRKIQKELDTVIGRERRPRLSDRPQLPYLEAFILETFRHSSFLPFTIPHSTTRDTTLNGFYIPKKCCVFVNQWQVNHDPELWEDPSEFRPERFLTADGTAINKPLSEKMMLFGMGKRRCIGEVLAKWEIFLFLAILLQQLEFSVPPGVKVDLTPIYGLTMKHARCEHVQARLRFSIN

[14] = biological target: Disintegrin and metalloproteinase domain-containing protein 17 (Homo sapiens, UniProt P78536); experiment: inhibition of ADAM17 substrate cleavage – biochemical, quenched FRET substrate, counter-screen for ADAM10 exosite inhibitor project, dose response (AID 743253)
[15] = viability of HCT116 lacking mutant beta-catenin – cell-based, human colon tumor, dose response (AID 1045); format: functional;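 further: HCT116 colon tumor cells with beta catenin knocked out; cells exposed to compound for 60 hours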
INS1 = experiment: INS-1E survival protection against cytokine death – cell-based, luminescence, retest, dose response (AID 449756); format: functional; conditions: Rattus norvegicus;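 further: cell death triggered by IL-1 beta plus TNF-alpha plus IFN-gamma mixture; protective hits raise ATP signal compared with cytokine alone wells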
Streptococcus = experiment: GAS UMAA2166 growth inhibition – luminescence, BacTiterGlo, counter-screen for streptokinase expression inhibitor project, dose response (AID 1915); format: functional, organism-based;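 further: potency for reduction of bacterial viability or growth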
[16] = viability of PTEN-deleted HCT116 cells – cell-based, HCT116 PTEN knockout, dose response (AID 1047); format: functional;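 further: HCT116 colon tumor cells with PTEN knocked out; cells exposed to compound for 60 hours before readout; potency for loss of cell viability measured by luminescence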
[17] = test system: Streptococcus sp. 'group A'; experiment: Streptococcus pyogenes SK(-)GAS viability under kanamycin – luminescence, BacTiterGlo, confirmation, counter-screen for streptokinase expression inhibitor project, dose response (AID 1900); format: functional, organism-based
Streptokinase A = biological target: T2, Streptokinase A (Streptococcus pyogenes serotype M1, UniProt P10520); experiment: viability-normalized secreted streptokinase activity reduction – plasminogen activation absorbance, OD405, dose response (AID 1914); format: functional, Streptococcus pyogenes M1 GAS;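 further: secreted streptokinase activity via plasminogen activation per viability signal from cell pellet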
T2 sequence (P10520 whole entry): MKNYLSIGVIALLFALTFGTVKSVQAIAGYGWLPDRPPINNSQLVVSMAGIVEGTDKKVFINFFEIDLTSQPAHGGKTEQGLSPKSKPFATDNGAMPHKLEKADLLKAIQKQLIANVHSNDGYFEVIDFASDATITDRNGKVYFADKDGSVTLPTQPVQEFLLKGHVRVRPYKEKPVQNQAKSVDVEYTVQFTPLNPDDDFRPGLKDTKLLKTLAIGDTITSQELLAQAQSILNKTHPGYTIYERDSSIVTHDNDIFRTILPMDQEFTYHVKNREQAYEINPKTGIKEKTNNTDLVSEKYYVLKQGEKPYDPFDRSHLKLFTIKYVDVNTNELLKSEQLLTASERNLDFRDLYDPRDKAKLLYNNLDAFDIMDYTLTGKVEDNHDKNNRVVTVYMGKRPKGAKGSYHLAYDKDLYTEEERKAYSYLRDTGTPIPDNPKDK

[18] = Luminescence Cell-Based Dose Retest to Confirm Inhibitors of Cancer Stem Cells. [Related pubchem assays (depositor defined):AID2717, AID2721]; format: functional; conditions: Homo sapiens

Chain of NAD-dependent protein deacylase sirtuin-5, mitochondrial (Q9NXA8 whole entry): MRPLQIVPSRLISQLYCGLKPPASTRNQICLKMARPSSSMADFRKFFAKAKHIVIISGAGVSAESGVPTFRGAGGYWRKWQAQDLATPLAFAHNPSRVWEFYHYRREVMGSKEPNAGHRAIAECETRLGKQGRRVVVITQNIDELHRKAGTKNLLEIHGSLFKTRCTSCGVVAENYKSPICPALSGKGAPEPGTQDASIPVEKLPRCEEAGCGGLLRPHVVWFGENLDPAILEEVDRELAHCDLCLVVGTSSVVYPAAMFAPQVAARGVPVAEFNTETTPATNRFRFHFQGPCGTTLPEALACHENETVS
Chain of Paired box protein Pax-8 (Q06710 whole entry): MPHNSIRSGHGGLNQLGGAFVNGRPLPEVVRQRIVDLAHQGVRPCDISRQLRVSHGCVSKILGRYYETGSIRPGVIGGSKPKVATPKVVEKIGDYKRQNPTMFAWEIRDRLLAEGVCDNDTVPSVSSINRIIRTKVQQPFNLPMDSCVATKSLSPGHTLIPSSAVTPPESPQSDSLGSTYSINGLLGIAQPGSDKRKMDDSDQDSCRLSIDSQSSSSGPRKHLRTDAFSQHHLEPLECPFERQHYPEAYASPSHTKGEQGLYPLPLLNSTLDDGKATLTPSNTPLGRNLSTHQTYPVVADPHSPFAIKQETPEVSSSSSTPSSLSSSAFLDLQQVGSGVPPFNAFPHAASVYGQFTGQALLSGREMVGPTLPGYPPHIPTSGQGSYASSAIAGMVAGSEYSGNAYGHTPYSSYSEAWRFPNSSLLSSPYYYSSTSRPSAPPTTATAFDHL
Chain of Disintegrin and metalloproteinase domain-containing protein 17 (P78536 whole entry, the tested form may be a part): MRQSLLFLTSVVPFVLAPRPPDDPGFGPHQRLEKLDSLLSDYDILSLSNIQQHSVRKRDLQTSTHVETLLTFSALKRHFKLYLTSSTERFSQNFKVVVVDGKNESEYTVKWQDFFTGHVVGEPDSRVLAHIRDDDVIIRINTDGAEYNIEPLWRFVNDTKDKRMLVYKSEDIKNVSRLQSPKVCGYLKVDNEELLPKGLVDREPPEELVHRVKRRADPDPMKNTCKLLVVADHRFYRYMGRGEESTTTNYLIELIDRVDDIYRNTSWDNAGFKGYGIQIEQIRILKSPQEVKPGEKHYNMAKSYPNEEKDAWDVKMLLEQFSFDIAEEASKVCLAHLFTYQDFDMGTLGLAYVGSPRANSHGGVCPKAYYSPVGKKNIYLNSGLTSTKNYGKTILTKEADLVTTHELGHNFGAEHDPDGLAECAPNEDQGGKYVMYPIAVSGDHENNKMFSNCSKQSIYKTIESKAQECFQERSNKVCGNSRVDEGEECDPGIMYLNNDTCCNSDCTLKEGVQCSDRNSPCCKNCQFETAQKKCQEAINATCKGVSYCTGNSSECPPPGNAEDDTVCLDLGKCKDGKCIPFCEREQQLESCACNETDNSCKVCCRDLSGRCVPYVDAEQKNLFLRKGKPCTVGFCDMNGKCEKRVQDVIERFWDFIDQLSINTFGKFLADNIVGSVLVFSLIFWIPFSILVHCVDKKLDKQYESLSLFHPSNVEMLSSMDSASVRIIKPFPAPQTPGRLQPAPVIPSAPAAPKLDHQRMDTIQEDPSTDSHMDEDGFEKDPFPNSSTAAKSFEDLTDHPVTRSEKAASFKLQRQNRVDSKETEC
Chain of Cytochrome P450 2C19 (P33261 whole entry): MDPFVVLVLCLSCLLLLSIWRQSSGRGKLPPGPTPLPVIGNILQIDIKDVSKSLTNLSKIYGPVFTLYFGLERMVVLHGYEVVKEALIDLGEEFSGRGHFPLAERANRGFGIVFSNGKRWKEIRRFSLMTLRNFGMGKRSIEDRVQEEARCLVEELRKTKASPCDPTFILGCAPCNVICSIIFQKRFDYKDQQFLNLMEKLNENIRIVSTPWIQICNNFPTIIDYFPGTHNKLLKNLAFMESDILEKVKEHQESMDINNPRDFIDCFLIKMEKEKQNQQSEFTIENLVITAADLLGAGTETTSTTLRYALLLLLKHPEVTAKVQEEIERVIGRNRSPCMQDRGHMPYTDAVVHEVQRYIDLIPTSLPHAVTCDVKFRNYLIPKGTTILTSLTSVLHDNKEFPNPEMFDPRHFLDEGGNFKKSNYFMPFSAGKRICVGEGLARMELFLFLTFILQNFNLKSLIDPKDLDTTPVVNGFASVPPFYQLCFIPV
Chain of Cytochrome P450 2D6 (P10635 whole entry): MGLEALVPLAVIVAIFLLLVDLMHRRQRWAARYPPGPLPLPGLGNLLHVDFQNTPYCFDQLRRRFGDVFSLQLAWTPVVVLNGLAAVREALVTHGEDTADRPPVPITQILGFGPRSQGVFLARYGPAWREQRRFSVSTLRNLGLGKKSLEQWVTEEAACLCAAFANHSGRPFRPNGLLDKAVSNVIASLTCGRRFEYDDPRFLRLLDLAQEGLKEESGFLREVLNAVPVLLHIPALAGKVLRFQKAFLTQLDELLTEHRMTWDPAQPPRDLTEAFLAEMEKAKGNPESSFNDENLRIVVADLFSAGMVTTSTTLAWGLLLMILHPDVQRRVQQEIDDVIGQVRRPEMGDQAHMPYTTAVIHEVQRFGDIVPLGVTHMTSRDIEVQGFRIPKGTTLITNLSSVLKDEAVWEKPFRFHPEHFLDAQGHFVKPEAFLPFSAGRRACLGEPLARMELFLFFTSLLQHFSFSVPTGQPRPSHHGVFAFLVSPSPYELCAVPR

CN[C@@H]1[C@H](O)[C@H](NC)[C@H]2O[C@@]3(O)C(=O)C[C@@H](C)O[C@H]3O[C@@H]2[C@H]1O
IC50 [1]: > 40 µM (inactive) | IC50 [2]: > 40 µM (inactive)

COc1ccc(C(=O)NCC(=O)OCc2ccccc2F)cc1
AC50 [3]: > 30 µM (inactive)

COc1ccccc1C#Cc1ccc([C@H]2[C@@H](CO)N(C(=O)C3CC3)[C@H]2C#N)cc1
AC50 [4]: 2.22 µM (active) | AC50 [5]: 2.28 µM (active) | AC50 [6]: 1.09 µM (active) | AC50 [7]: 0.457 µM (active) | AC50 [8]: > 100 µM (inactive)

O=C(Nc1ccc(F)cc1)N1C[C@H]2[C@@H](c3ccccc31)[C@H](CO)N2C(=O)c1ccccc1F
AC50 [9]: 4.75 µM (active) | AC50 [10]: > 39 µM (inactive)

CCNC(=O)c1cc2c(c(-c3cccc(-c4ccccc4F)c3)n1)[C@@H](CCO)N(C(=O)CC1CC1)C2
AC50 [9]: 5.87 µM (active) | AC50 [11]: 11 µM (active)

C[C@H](CO)N1C[C@H](C)[C@H](CN(C)C(=O)Nc2ccc(-c3cccs3)cc2)OCc2cnnn2CCCC1=O
AC50 [12]: 11.5 µM (active) | AC50 [13]: > 70 µM (inactive) | AC50 (Paired box protein Pax-8): < 0.26 µM (active)

CC[C@H](c1ccc(O)cc1)[C@@H](CC)c1ccc(O)cc1 [HEXESTROL]
IC50 [1]: 6.88 µM (inactive) | AC50 (Cytochrome P450 2C19): 3.16 µM (inconclusive) | AC50 (Cytochrome P450 2D6): 15.8 µM (inconclusive) | AC50 (Cytochrome P450 1A2): 12.6 µM (inconclusive) | IC50 [2]: > 40 µM (inactive)

Cc1ccc(NS(=O)(=O)c2ccc(Cl)c(NC(=S)NC(=O)C3CCCCC3)c2)cc1Cl
IC50 [14]: > 69.5 µM (inactive) | EC50 [15]: 20.8 µM (active) | AC50 (INS1): 10.2 µM (active) | EC50 (Streptococcus): 4.65 µM (active) | EC50 [16]: 19.8 µM (active) | EC50 [17]: 0.756 µM (active) | EC50 (Streptokinase A): 2.48 µM (active) | AC50 [18]: 3.05 µM (active)
